ChEMBL document CHEMBL1687760, “Secondary integrase resistance mutations found in HIV-1 minority quasispecies in integrase therapy-naive patients have little or no effect on susceptibility to integrase inhibitors” (Antimicrob Agents Chemother, 2010)

Legend:
[1] = system: Human immunodeficiency virus 1; assay: Antiviral activity against Human immunodeficiency virus 1 3B harboring integrase L74M mutant infected in human MT4 cells assessed as inhibition of virus induced cytopathic effect relative to wild type HIV1; type: functional
[2] = system: Human immunodeficiency virus 1; assay: Antiviral activity against Human immunodeficiency virus 1 3B harboring integrase T97A mutant infected in human MT4 cells assessed as inhibition of virus induced cytopathic effect relative to wild type HIV1; type: functional
[3] = system: Human immunodeficiency virus 1; assay: Antiviral activity against Human immunodeficiency virus 1 3B harboring integrase S119G mutant infected in human MT4 cells assessed as inhibition of virus induced cytopathic effect relative to wild type HIV1; type: functional
[4] = system: Human immunodeficiency virus 1; assay: Antiviral activity against Human immunodeficiency virus 1 3B harboring integrase G140S mutant infected in human MT4 cells assessed as inhibition of virus induced cytopathic effect relative to wild type HIV1; type: functional
[5] = system: Human immunodeficiency virus 1; assay: Antiviral activity against Human immunodeficiency virus 1 3B harboring integrase K156N mutant infected in human MT4 cells assessed as inhibition of virus induced cytopathic effect relative to wild type HIV1; type: functional
[6] = system: Human immunodeficiency virus 1; assay: Antiviral activity against Human immunodeficiency virus 1 clone 15_7 harboring integrase E11D, S17T, L45V, M50T, I72V, L74I, T97A, K111T, S119G, T125A infected in human MT4 cells assessed as inhibition of virus induced cytopathic effect relative to wild type HIV1; type: functional
[7] = system: Human immunodeficiency virus 1; assay: Antiviral activity against Human immunodeficiency virus 1 clone 15_19 harboring integrase E11D, S17T, L45V, M50T, I72V, L74I, T97A, K111T, S119G, T125A infected in human MT4 cells assessed as inhibition of virus induced cytopathic effect relative to wild type HIV1; type: functional
[8] = system: Human immunodeficiency virus 1; assay: Antiviral activity against Human immunodeficiency virus 1 clone 18_13 harboring integrase S17N, T124N, T125A, G140S, M154I, S195C infected in human MT4 cells assessed as inhibition of virus induced cytopathic effect relative to wild type HIV1; type: functional
[9] = system: Human immunodeficiency virus 1; assay: Antiviral activity against Human immunodeficiency virus 1 clone 50_2 harboring integrase R20K, A23V, E92G, T124N, I141V, G193E, V201I, T206S, I220V, D279G infected in human MT4 cells assessed as inhibition of virus induced cytopathic effect relative to wild type HIV1; type: functional
[10] = system: Human immunodeficiency virus 1; assay: Antiviral activity against Human immunodeficiency virus 1 clone 1 harboring integrase E11D, S17T, L45V, M50I, M50T, I72V, L74I, K111T, S119G, T125A relative to wild type HIV1; type: functional
[11] = system: Human immunodeficiency virus 1; assay: Antiviral activity against Human immunodeficiency virus 1 clone 12 harboring integrase E11D, S17T, L45V, M50T, I72V, L74I, K111T, S119G, T125A relative to wild type HIV1; type: functional
[12] = system: Human immunodeficiency virus 1; assay: Antiviral activity against Human immunodeficiency virus 1 clone 16 harboring integrase E11D, S17T, L45V, M50T, I72V, L74I, K111T, T125A relative to wild type HIV1; type: functional
[13] = system: Human immunodeficiency virus 1; assay: Antiviral activity against Human immunodeficiency virus 1 clone 19 harboring integrase E11D, S17T, L45V, M50T, I72V, L74I, T97A, K111T, S119G, T125A relative to wild type HIV1; type: functional
[14] = system: Human immunodeficiency virus 1; assay: Antiviral activity against Human immunodeficiency virus 1 clone 20 harboring integrase E11D, S17T, L45V, M50T, I72V, L74I, K111T, T125A, I217V relative to wild type HIV1; type: functional
[15] = system: Human immunodeficiency virus 1; assay: Antiviral activity against Human immunodeficiency virus 1 clone 3 harboring integrase S17N, I84I, T124N, T125A, M154I, S195C mutant gene relative to wild type HIV1; type: functional
[16] = system: Human immunodeficiency virus 1; assay: Antiviral activity against Human immunodeficiency virus 1 clone 9 harboring integrase S17N, I84I, T124N, T125A, M154I, A175T, S195C mutant gene relative to wild type HIV1; type: functional
[17] = system: Human immunodeficiency virus 1; assay: Antiviral activity against Human immunodeficiency virus 1 clone 13 harboring integrase S17N, T124N, T125A, G140S, M154I, S195C mutant gene relative to wild type HIV1; type: functional
[18] = system: Human immunodeficiency virus 1; assay: Antiviral activity against Human immunodeficiency virus 1 clone 14 harboring integrase S17N, T124N, T125A, M154I, S195C, V201I mutant gene relative to wild type HIV1; type: functional
[19] = system: Human immunodeficiency virus 1; assay: Antiviral activity against Human immunodeficiency virus 1 clone 15 harboring integrase S17N, I84I, T124N, T125A, M154I, S195C mutant gene relative to wild type HIV1; type: functional
[20] = system: Human immunodeficiency virus 1; assay: Antiviral activity against Human immunodeficiency virus 1 clone 16 harboring integrase S17N, T124N, T125A, M154I, S195C, V201I mutant gene relative to wild type HIV1; type: functional
[21] = system: Human immunodeficiency virus 1; assay: Antiviral activity against Human immunodeficiency virus 1 clone 18 harboring integrase S17N, I84I, T124N, T125A, M154I, S195C, V201I, S230G mutant gene relative to wild type HIV1; type: functional
[22] = system: Human immunodeficiency virus 1; assay: Antiviral activity against Human immunodeficiency virus 1 3B infected in human MT4 cells assessed as inhibition of virus induced cytopathic effect; type: functional, organism-based
[23] = system: Human immunodeficiency virus 1; assay: Antiviral activity against Human immunodeficiency virus 1 3B harboring integrase T66I mutant infected in human MT4 cells assessed as inhibition of virus induced cytopathic effect relative to wild type HIV1; type: functional
[24] = system: Human immunodeficiency virus 1; assay: Antiviral activity against Human immunodeficiency virus 1 3B harboring integrase L68V mutant infected in human MT4 cells assessed as inhibition of virus induced cytopathic effect relative to wild type HIV1; type: functional
[25] = system: Human immunodeficiency virus 1; assay: Antiviral activity against Human immunodeficiency virus 1 3B harboring integrase I72V mutant infected in human MT4 cells assessed as inhibition of virus induced cytopathic effect relative to wild type HIV1; type: functional
[26] = system: Human immunodeficiency virus 1; assay: Antiviral activity against Human immunodeficiency virus 1 clone 16 harboring integrase R20K, A23V, M50I, T124N, G193E, V201I, T206S, I220V, D279G mutant gene relative to wild type HIV1; type: functional
[27] = system: Human immunodeficiency virus 1; assay: Antiviral activity against Human immunodeficiency virus 1 clone 17 harboring integrase R20K, A23V, T124N,A129T, I141V, I62T, G193E, V201I, T206S, I220V, D279G mutant gene relative to wild type HIV1; type: functional
[28] = system: Human immunodeficiency virus 1; assay: Antiviral activity against Human immunodeficiency virus 1 clone 19 harboring integrase R20K, A23V, G70E, T124N, I141V, G193E, V201I, T206S, I220V mutant gene relative to wild type HIV1; type: functional
[29] = system: Human immunodeficiency virus 1; assay: Antiviral activity against Human immunodeficiency virus 1 clone 15_7 harboring integrase T97A mutant and T97A, Y143R site-directed mutation relative to wild type HIV1; type: functional
[30] = system: Human immunodeficiency virus 1; assay: Antiviral activity against Human immunodeficiency virus 1 clone 15_12 harboring integrase Y143R site-directed mutation relative to wild type HIV1; type: functional
[31] = system: Human immunodeficiency virus 1; assay: Antiviral activity against Human immunodeficiency virus 1 clone 18_13 harboring integrase G140S mutant and G140S, Q148H site-directed mutation relative to wild type HIV1; type: functional
[32] = system: Human immunodeficiency virus 1; assay: Antiviral activity against Human immunodeficiency virus 1 HXB2 assessed as inhibition of virus induced cytopathic effect relative to wild type HIV1; type: functional

Row | Compound | fold change (FC) [1] | fold change (FC) [2] | fold change (FC) [3] | fold change (FC) [4] | fold change (FC) [5] | fold change (FC) [6] | fold change (FC) [7] | fold change (FC) [8] | fold change (FC) [9] | fold change (FC) [10] | fold change (FC) [11] | fold change (FC) [12] | fold change (FC) [13] | fold change (FC) [14] | fold change (FC) [15] | fold change (FC) [16] | fold change (FC) [17] | fold change (FC) [18] | fold change (FC) [19] | fold change (FC) [20] | further results
1 | COc1cc2c(cc1Cc1cccc(Cl)c1F)c(=O)c(C(=O)O)cn2[C@H](CO)C(C)C [ELVITEGRAVIR] | 0.7 | 2.6 | 1 | 5.6 | 0.7 | 2.7 | 2.5 | 5.6 | 13 | 1.4 | 1 | 0.5 | 2.5 | 1 | 0.6 | 1.3 | 5.6 | 1.3 | 0.6 | 1 | fold change (FC) [21]: 0.8; EC50 [22]: 11.6 nM; fold change (FC) [23]: 10.5; fold change (FC) [24]: 1.1; fold change (FC) [25]: 0.8; fold change (FC) [26]: 0.7; fold change (FC) [27]: 0.3; fold change (FC) [28]: 1.1; fold change (FC) [29]: 14.6; fold change (FC) [30]: 4.2; fold change (FC) [31]: >633.7; fold change (FC) [32]: 1.2
2 | Cc1nnc(C(=O)NC(C)(C)c2nc(C(=O)NCc3ccc(F)cc3)c(O)c(=O)n2C)o1 [RALTEGRAVIR] | 0.9 | 1.6 | 1.1 | 2.4 | 0.4 | 1.5 | 1.7 | 2.4 | 1.8 | 1.7 | 1.1 | 1.2 | 1.7 | 1.5 | 0.8 | 1.1 | 2.4 | 1.8 | 0.7 | 1.3 | fold change (FC) [21]: 1.3; EC50 [22]: 6.1 nM; fold change (FC) [23]: 0.8; fold change (FC) [24]: 0.4; fold change (FC) [25]: 0.9; fold change (FC) [26]: 0.8; fold change (FC) [27]: 0.3; fold change (FC) [28]: 1.2; fold change (FC) [29]: 91.6; fold change (FC) [30]: 13.1; fold change (FC) [31]: 768; fold change (FC) [32]: 1
